Tested on: GNS166 cells
Assay: Label-free proteomics differential expression
Format: cell-based, human
Experimental: Proteomic studies were performed by the Proteomics Facility of the CIC bioGUNE by label-free relative quantification on nLC MS/MS. […] In both approaches, the top 20 enriched terms were plotted and the pathways were clustered using divisive hierarchical clustering based on pairwise Jaccard distances.

SMILES: C#CCN(Cc1cc2cc(OCCCN3CCCCC3)ccc2n1S(=O)(=O)c1ccccc1)C(=O)CCCCCCC(=O)NO [DDI]
- Direction ANR52_HUMAN (protein Q8NB46): Down
- LogFC ANR52_HUMAN (protein Q8NB46): -3.184
- Direction TTC13_HUMAN (protein Q8NBP0): Down
- LogFC TTC13_HUMAN (protein Q8NBP0): -1.381
- LogFC KMT2C_HUMAN (protein Q8NEZ4 GN=KMT2C): 0.407
- LogFC PLBL2_HUMAN (protein Q8NHP8 GN=PLBD2): 1.378
- LogFC NEDD1_HUMAN (protein Q8NHV4 GN=NEDD1): 0.5958
- LogFC SMRC2_HUMAN (protein Q8TAQ2 GN=SMARCC2): -0.7509
- LogFC CX038_HUMAN (protein Q8TB03 GN=CXorf38): 1.347
- LogFC GDAP1_HUMAN (protein Q8TB36 GN=GDAP1): 1.874
- Direction CIP2A_HUMAN (protein Q8TCG1): Down
- LogFC CIP2A_HUMAN (protein Q8TCG1): -1.2095
- LogFC DDX54_HUMAN (protein Q8TDD1 GN=DDX54): -1.067
- Direction DTD1_HUMAN (protein Q8TEA8): Down
- LogFC DTD1_HUMAN (protein Q8TEA8): -0.5287
- LogFC PPIL4_HUMAN (protein Q8WUA2 GN=PPIL4): -1.325
- Direction LMBR1_HUMAN (protein Q8WVP7): Down
- LogFC LMBR1_HUMAN (protein Q8WVP7): -0.9571
- LogFC FACR1_HUMAN (protein Q8WVX9 GN=FAR1): 0.64
- LogFC UBCP1_HUMAN (protein Q8WVY7 GN=UBLCP1): 1.245
- Direction ATX2L_HUMAN (protein Q8WWM7): Down
- LogFC ATX2L_HUMAN (protein Q8WWM7): -0.7543
- Direction PHIP_HUMAN (protein Q8WWQ0): Down
- LogFC PHIP_HUMAN (protein Q8WWQ0): -2.692
- Direction NELFB_HUMAN (protein Q8WX92): Down
- LogFC NELFB_HUMAN (protein Q8WX92): -0.7153
- Direction ATLA1_HUMAN (protein Q8WXF7): Down
- LogFC ATLA1_HUMAN (protein Q8WXF7): -1.239
- Direction CND3_HUMAN (protein Q9BPX3): Down
- LogFC CND3_HUMAN (protein Q9BPX3): -1.5744
- Direction FSP1_HUMAN (protein Q9BRQ8): Down
- LogFC FSP1_HUMAN (protein Q9BRQ8): -0.8531
- Direction GCP2_HUMAN (protein Q9BSJ2): Down
- LogFC GCP2_HUMAN (protein Q9BSJ2): -1.427
- LogFC P4K2A_HUMAN (protein Q9BTU6 GN=PI4K2A): 1.541
- LogFC TMM43_HUMAN (protein Q9BTV4 GN=TMEM43): -0.7287
- LogFC MKNK1_HUMAN (protein Q9BUB5 GN=MKNK1): 1.242
- LogFC TBB2B_HUMAN (protein Q9BVA1 GN=TUBB2B): 1.2351
- Direction PBDC1_HUMAN (protein Q9BVG4): Down
- LogFC PBDC1_HUMAN (protein Q9BVG4): -0.9108
- Direction KIFC1_HUMAN (protein Q9BW19): Down
- LogFC KIFC1_HUMAN (protein Q9BW19): -4.377
- Direction NADAP_HUMAN (protein Q9BWU0): Down
- LogFC NADAP_HUMAN (protein Q9BWU0): -0.9102
- Direction LS14B_HUMAN (protein Q9BX40): Down
- LogFC LS14B_HUMAN (protein Q9BX40): -1.3017
- Direction NUSAP_HUMAN (protein Q9BXS6): Down
- LogFC NUSAP_HUMAN (protein Q9BXS6): -2.873
- Direction EIF2A_HUMAN (protein Q9BY44): Down
- LogFC EIF2A_HUMAN (protein Q9BY44): -0.2917
- LogFC PDIP3_HUMAN (protein Q9BY77 GN=POLDIP3): -0.8716
- LogFC GNB1L_HUMAN (protein Q9BYB4 GN=GNB1L): 2.567
- LogFC PAR6B_HUMAN (protein Q9BYG5 GN=PARD6B): 1.231
- LogFC ARL6_HUMAN (protein Q9H0F7 GN=ARL6): 2.762
- Direction RGAP1_HUMAN (protein Q9H0H5): Down
- LogFC RGAP1_HUMAN (protein Q9H0H5): -3.033
- Direction SMG9_HUMAN (protein Q9H0W8): Down
- LogFC SMG9_HUMAN (protein Q9H0W8): -1.751
- Direction YTDC2_HUMAN (protein Q9H6S0): Down
- LogFC YTDC2_HUMAN (protein Q9H6S0): -1.289
- LogFC ANKZ1_HUMAN (protein Q9H8Y5 GN=ANKZF1): 2.2814
- LogFC EHMT1_HUMAN (protein Q9H9B1 GN=EHMT1): -1.629
- Direction EHD4_HUMAN (protein Q9H223): Down
- LogFC EHD4_HUMAN (protein Q9H223): -0.4023
- LogFC FN3K_HUMAN (protein Q9H479 GN=FN3K): -1.71
- Direction HEAT1_HUMAN (protein Q9H583): Down
- LogFC HEAT1_HUMAN (protein Q9H583): -0.4862
- Direction PHAX_HUMAN (protein Q9H814): Down
- LogFC PHAX_HUMAN (protein Q9H814): -0.7063
- LogFC NT5D2_HUMAN (protein Q9H857 GN=NT5DC2): 0.9697
- Direction ZWILC_HUMAN (protein Q9H900): Down
- LogFC ZWILC_HUMAN (protein Q9H900): -1.417
- LogFC QTRT2_HUMAN (protein Q9H974 GN=QTRT2): -0.9473
- LogFC WDR54_HUMAN (protein Q9H977 GN=WDR54): 2.021
- LogFC ARMT1_HUMAN (protein Q9H993 GN=ARMT1): 1.113
- LogFC KT3K_HUMAN (protein Q9HA64 GN=FN3KRP): 0.7505
- Direction TM165_HUMAN (protein Q9HC07): Down
- LogFC TM165_HUMAN (protein Q9HC07): -0.8409
- Direction CWC22_HUMAN (protein Q9HCG8): Down
- LogFC CWC22_HUMAN (protein Q9HCG8): -0.5601
- LogFC VAT1L_HUMAN (protein Q9HCJ6 GN=VAT1L): 1.2681
- Direction RM47_HUMAN (protein Q9HD33): Down
- LogFC RM47_HUMAN (protein Q9HD33): -0.8741
- Direction TM9S3_HUMAN (protein Q9HD45): Down
- LogFC TM9S3_HUMAN (protein Q9HD45): -0.5879
- Direction HM20A_HUMAN (protein Q9NP66): Down
- LogFC HM20A_HUMAN (protein Q9NP66): -1.261
- LogFC TNR12_HUMAN (protein Q9NP84 GN=TNFRSF12A): -2.0106
- Direction LUC7L_HUMAN (protein Q9NQ29): Down
- LogFC LUC7L_HUMAN (protein Q9NQ29): -0.6796
- Direction SSF1_HUMAN (protein Q9NQ55): Down
- LogFC SSF1_HUMAN (protein Q9NQ55): -1.815
- LogFC CL004_HUMAN (protein Q9NQ89 GN=C12orf4): 1.057
- LogFC ITM2C_HUMAN (protein Q9NQX7 GN=ITM2C): 1.931
- LogFC DBLOH_HUMAN (protein Q9NR28 GN=DIABLO): 1.0021
- LogFC DDX21_HUMAN (protein Q9NR30 GN=DDX21): -1.5607
- LogFC HEBP1_HUMAN (protein Q9NRV9 GN=HEBP1): 1.384
- Direction ABC3C_HUMAN (protein Q9NRW3): Down
- LogFC ABC3C_HUMAN (protein Q9NRW3): -0.8611
- Direction LANC2_HUMAN (protein Q9NS86): Down
- LogFC LANC2_HUMAN (protein Q9NS86): -1.981
- LogFC HOME3_HUMAN (protein Q9NSC5 GN=HOMER3): 1.625
- Direction F207A_HUMAN (protein Q9NSI2): Down
- LogFC F207A_HUMAN (protein Q9NSI2): -1.761
- LogFC DIAP3_HUMAN (protein Q9NSV4 GN=DIAPH3): -2.473
- Direction SMC4_HUMAN (protein Q9NTJ3): Down
- LogFC SMC4_HUMAN (protein Q9NTJ3): -1.4105
- Direction TYDP1_HUMAN (protein Q9NUW8): Down
- LogFC TYDP1_HUMAN (protein Q9NUW8): -1.1128
- Direction FANCI_HUMAN (protein Q9NVI1): Down
- LogFC FANCI_HUMAN (protein Q9NVI1): -3.564
- Direction EVA1B_HUMAN (protein Q9NVM1): Down
- LogFC EVA1B_HUMAN (protein Q9NVM1): -3.511
- Direction THG1_HUMAN (protein Q9NWX6): Down
